Data: US20220142995A1, “DUAL ATM AND DNA-PK INHIBITORS FOR USE IN ANTI-TUMOR THERAPY” (XRAD Therapeutics, Inc., priority 2019, published 2022)
“And” between values parts separate entries of the source, which are not always exact repeats. Equal entries are not always repeated. Structures can show the parent of a compound that is named as a salt.

How the values were obtained:
mTOR = biological target: T1, mTOR (Homo sapiens, UniProt P42345); test: mTOR biochemical assay (LanthaScreen TR-FRET); conditions: ATP 3 μM, maximal concentration 100 nM
T1 construct: purchased ThermoFisher PR8683B
T1 sequence (P42345 1360-2549 limits assumed): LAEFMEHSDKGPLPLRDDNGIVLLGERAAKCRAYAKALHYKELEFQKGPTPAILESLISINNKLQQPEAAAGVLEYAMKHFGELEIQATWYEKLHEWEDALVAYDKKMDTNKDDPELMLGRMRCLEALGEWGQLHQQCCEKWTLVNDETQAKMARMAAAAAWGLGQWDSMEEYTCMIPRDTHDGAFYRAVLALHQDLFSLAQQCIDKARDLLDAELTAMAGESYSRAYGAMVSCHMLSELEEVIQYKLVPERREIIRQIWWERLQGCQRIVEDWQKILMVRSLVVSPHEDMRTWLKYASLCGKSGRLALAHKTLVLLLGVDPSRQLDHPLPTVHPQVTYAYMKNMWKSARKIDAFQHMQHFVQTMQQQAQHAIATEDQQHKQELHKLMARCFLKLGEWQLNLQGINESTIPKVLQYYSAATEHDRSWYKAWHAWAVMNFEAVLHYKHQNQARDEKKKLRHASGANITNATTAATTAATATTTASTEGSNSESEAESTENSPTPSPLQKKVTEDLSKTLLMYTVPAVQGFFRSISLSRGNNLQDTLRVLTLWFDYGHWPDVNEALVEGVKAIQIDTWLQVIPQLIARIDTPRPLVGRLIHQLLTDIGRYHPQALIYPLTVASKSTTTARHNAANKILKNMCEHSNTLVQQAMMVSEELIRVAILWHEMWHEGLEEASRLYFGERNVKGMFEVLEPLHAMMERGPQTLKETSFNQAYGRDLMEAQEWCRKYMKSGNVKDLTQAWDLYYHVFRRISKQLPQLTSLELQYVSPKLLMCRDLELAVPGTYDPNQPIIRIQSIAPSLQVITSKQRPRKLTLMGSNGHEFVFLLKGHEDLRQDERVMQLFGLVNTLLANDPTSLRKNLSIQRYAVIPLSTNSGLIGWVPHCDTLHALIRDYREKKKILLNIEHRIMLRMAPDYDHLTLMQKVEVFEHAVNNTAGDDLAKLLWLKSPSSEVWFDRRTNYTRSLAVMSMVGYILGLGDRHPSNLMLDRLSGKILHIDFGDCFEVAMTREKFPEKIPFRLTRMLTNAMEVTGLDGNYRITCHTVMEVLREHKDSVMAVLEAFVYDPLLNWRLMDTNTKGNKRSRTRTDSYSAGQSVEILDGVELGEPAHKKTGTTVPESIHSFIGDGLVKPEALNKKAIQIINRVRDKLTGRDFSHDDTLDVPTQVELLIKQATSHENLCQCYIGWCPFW
Protocol: mTOR Kinase reactions were performed in a 10 μL volume in low-volume 384-well plates. Typically, PerkinElmer model 6008260 plates were used. The composition of the 1× kinase reaction buffer was: 50 mM HEPES pH 7.5, 0.01% Tween 20, 1 mM EGTA, 10 mM MnCl2, and 2 mM DTT. The solution of mTOR enzyme (ThermoFisher, #PR8683B; the final mTOR concentration: 0.5 μg/mL) was added, and the compounds were serially diluted to the final maximal concentration of 100 nM (3 fold series dilution, a total of 10 doses). GFP-4E-BP1 (the final concentration: 0.4 μM) and the ATP solution (the final ATP concentration: 3 μM) were added to the 384-well plate. The plate was incubated at 25° C. for 1 hour, and 10 μL of the EDTA solution (20 mM) and Tb-labeled anti-p4E-BP1 antibody (4 nM) in TR-FRET dilution buffer were added to each well. The plate was sealed, incubated 30 min at 25° C., and read on a plate reader configured for LanthaScreen™ TRFRET.

ATM = biological target: T2, ATM (Homo sapiens, UniProt Q13315); test: ATM in Cell Western assay (pKAP1, etoposide-treated MCF-7 cells); assay type: cell-based; conditions: etoposide 100 μM, 1 h, pKAP1 readout
T2 construct: endogenous in cells; host or cells: MCF-7
T2 sequence (Q13315 whole entry): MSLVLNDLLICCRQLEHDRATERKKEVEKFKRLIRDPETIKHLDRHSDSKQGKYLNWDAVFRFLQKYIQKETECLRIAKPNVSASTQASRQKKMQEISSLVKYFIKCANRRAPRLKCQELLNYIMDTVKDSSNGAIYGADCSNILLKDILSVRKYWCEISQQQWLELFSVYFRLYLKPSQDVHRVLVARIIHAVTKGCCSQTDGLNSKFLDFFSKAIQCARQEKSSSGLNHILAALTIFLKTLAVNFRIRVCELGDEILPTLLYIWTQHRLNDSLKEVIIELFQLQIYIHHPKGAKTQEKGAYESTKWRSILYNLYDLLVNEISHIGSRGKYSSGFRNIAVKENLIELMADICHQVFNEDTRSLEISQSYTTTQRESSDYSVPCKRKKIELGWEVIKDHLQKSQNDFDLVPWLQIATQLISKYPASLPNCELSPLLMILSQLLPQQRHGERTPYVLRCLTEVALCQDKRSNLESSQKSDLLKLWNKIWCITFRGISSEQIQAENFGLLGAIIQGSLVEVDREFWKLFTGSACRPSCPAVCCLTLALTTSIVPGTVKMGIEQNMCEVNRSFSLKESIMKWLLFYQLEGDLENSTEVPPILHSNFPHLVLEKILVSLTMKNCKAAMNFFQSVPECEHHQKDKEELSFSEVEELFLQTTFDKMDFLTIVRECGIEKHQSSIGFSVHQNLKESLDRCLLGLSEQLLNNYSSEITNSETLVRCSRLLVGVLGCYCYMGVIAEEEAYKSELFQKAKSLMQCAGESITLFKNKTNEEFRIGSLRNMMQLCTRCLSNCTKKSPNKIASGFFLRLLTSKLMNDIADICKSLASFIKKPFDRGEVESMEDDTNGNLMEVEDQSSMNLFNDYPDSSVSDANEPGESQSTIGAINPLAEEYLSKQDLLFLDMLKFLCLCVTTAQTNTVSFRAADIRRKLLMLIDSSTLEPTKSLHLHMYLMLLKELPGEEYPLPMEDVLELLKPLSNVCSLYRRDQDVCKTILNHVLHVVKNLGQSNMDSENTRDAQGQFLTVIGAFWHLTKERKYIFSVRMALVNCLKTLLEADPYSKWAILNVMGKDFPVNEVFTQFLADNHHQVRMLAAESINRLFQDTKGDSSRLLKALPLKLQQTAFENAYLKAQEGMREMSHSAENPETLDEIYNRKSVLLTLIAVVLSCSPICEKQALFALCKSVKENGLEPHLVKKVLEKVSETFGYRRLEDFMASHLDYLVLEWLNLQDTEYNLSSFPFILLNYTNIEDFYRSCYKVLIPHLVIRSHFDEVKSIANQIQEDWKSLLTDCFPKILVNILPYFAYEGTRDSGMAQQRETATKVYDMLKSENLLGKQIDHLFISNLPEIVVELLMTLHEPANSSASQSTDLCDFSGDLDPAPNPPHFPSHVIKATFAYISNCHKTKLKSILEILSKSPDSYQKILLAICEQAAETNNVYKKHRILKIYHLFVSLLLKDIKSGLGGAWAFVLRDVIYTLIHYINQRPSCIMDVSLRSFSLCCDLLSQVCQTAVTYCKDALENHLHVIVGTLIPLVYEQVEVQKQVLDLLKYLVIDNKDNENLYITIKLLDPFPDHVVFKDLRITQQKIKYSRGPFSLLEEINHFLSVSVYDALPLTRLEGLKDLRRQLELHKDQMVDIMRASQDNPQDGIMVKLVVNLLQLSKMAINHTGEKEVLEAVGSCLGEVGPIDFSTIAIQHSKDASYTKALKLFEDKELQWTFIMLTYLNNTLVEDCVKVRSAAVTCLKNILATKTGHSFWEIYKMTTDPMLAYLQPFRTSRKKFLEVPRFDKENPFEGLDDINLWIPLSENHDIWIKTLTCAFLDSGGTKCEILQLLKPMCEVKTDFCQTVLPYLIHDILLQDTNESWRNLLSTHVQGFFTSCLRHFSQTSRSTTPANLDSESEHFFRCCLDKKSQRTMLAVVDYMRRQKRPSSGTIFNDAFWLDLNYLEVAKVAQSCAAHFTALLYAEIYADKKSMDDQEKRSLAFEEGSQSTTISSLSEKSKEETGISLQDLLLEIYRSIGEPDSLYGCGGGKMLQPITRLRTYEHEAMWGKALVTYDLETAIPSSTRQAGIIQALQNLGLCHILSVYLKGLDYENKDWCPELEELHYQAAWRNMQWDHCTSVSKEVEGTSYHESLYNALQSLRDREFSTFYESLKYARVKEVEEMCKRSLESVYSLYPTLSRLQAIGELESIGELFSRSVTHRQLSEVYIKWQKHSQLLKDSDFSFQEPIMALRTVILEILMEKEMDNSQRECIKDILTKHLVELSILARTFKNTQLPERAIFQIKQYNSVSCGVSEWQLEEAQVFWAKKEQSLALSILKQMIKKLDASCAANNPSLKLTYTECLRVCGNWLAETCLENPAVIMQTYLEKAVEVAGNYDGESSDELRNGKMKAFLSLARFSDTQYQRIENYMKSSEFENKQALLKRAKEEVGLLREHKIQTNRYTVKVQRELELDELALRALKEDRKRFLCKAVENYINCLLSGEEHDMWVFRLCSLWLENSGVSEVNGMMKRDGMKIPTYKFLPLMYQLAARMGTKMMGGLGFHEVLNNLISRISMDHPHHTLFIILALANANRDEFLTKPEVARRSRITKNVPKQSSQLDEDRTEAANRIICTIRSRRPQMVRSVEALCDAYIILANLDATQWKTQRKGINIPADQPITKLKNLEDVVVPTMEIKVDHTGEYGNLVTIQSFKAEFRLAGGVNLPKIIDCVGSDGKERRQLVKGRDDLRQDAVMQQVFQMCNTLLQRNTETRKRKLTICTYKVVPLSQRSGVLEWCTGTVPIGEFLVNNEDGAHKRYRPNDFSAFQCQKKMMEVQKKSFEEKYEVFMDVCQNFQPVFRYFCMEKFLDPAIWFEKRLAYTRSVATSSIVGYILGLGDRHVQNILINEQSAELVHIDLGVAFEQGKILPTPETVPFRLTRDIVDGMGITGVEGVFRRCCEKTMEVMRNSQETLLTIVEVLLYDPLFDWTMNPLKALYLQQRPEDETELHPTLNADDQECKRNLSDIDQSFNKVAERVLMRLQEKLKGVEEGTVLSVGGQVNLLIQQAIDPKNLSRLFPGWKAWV
Protocol: ATM in Cell Western Assay:
In the morning, MCF-7 breast cancer cells were placed in a 384 well plate at the density of 10,000 cells/well (Corning, #356663), 25 μL cells per well. The following day, compounds were added to the plate using a pin tool (Echo 550) to a final concentration of 1 μM through a 3-fold serial dilution (a total of 10 doses). Then, etoposide (Sigma, #E1383) was added to a final concentration of 100 μM. The plate was incubated at 37° C. for 1 h, and the cells were fixed by the addition of 25 μL of fixing solution (8% paraformaldehyde) for 20 minutes at ambient temperature. Cells were permeabilized by 5 washes with 1×PBS (phosphate buffered saline) containing 0.1% Triton X-100; each wash was 5 minutes long. Cells were blocked by adding 50 μL of Odyssey Blocking Buffer (LI-COR, #927-40000) in 384 well plates for 1.5 hours with shaking at ambient temperature. Blocking buffer was then removed, and 20 μL of anti-pKAP1 antibody (Bethyl Laboratories, #A300-767A) (1/2000) solution were added to each well of 384-well plate. The plate was incubated overnight at 4° C. and then washed 5 times with 1×PBST (1×PBS containing 0.1% Tween-20). A secondary antibody (IRDye 800CW Goat anti-Rabbit IgG, LI-COR, #926-32211) (1/5,000) solution containing DNA stain DRAQ5 (CST, #4084L) (1/5,000) (20 μL) was added to each well in the plate, and the plate was incubated 1 hour with gentle shaking in the dark. Cells were washed 5 times with 1×PBST (1×PBS containing 0.1% Tween-20) at ambient temperature with gentle shaking in the dark. After the last wash, the wash solution was removed, the plate was inverted upside down onto a thin paper towel and centrifuged at 1000 rpm for 1 min to absorb all wash buffer. The bottom of the plate was cleaned with a moist, lint-free paper. The plate was immediately scanned using ODYSSEY CLx (LI-COR).

| SMILES | IC50 (mTOR) [nM] | IC50 (ATM) |
| --- | --- | --- |
| CC(C)NCCOc1ncc(-c2cc3c4c(cnc3cc2F)N(C)C(=O)C42CCC2)cc1NS(C)(=O)=O [Compound 569, N-(5-(7′-Fluoro-3′-methyl-2′-oxo-2′,3′-dihydrospiro[cyclobutane-1,1′-pyrrolo[2,3-c]quinolin]-8′-yl)-2-(2-(isopropylamino)ethoxy)pyridin-3-yl)methanesulfonamide] |  | 2.43 nM |
| CC(C)NCCOc1ncc(-c2cc3c(cc2F)ncc2c3[C@]3(C[C@H](OCc4ccccc4)C3)C(=O)N2C)cc1NS(C)(=O)=O [Compound 572, cis-N-(5-(3-(Benzyloxy)-7′-fluoro-3′-methyl-2′-oxo-2′,3′-dihydrospiro[cyclobutane-1,1′-pyrrolo[2,3-c]quinolin]-8′-yl)-2-(2-(isopropylamino)ethoxy)pyridin-3-yl)methanesulfonamide] | > 100 | 1.05 nM |
| CC[C@H]1C[C@]2(C1)C(=O)N(C)c1cnc3cc(F)c(-c4cnc(OCCNC(C)C)c(NS(C)(=O)=O)c4)cc3c12 [Compound 573, cis-N-(5-(3-Ethyl-7′-fluoro-3′-methyl-2′-oxo-2′,3′-dihydrospiro[cyclobutane-1,1′-pyrrolo[2,3-c]quinolin]-8′-yl)-2-(2-(isopropylamino)ethoxy)pyridin-3-yl)methanesulfonamide] | > 100 | 0.92 nM |
| CN1C(=O)C2(CCC2)c2c1cnc1ccc(-c3cnc(N4CC(N(C)C)C4)c(NS(C)(=O)=O)c3)cc21 [Compound 574, N-(2-(3-(Dimethylamino)azetidin-1-yl)-5-(3′-methyl-2′-oxo-2′,3′-dihydrospiro[cyclobutane-1,1′-pyrrolo[2,3-c]quinolin]-8′-yl)pyridin-3-yl)methanesulfonamide hydrochloride] | 19.9 | 1.52 nM |

The next lines start with the values.

| IC50 (mTOR) [nM] | IC50 (ATM) | SMILES |
| --- | --- | --- |
| > 100 | 6.72 nM | CC[C@H]1C[C@@]2(C1)C(=O)N(C)c1cnc3cc(F)c(-c4cnc(OCCNC(C)C)c(NS(C)(=O)=O)c4)cc3c12 [Compound 566, trans-N-(5-(3-Ethyl-7′-fluoro-3′-methyl-2′-oxo-2′,3′-dihydrospiro[cyclobutane-1,1′-pyrrolo[2,3-c]quinolin]-8′-yl)-2-(2-(isopropylamino)ethoxy)pyridin-3-yl)methanesulfonamide] |
| > 100 | 11 nM | CC(C)NCCOc1ncc(-c2cc3c(cc2F)ncc2c3[C@]3(C[C@@H](OCc4ccccc4)C3)C(=O)N2C)cc1NS(C)(=O)=O [Compound 567, trans-N-(5-(3-(Benzyloxy)-7′-fluoro-3′-methyl-2′-oxo-2′,3′-dihydrospiro[cyclobutane-1,1′-pyrrolo[2,3-c]quinolin]-8′-yl)-2-(2-(isopropylamino)ethoxy)pyridin-3-yl)methanesulfonamide] |
| > 100 | 2.88 nM | CC(C)NCCOc1ncc(-c2cc3c4c(cnc3cc2F)N(C)C(=O)C42CCC2)cc1NS(=O)(=O)C(C)C [Compound 568, N-(5-(7′-Fluoro-3′-methyl-2′-oxo-2′,3′-dihydrospiro[cyclobutane-1,1′-pyrrolo[2,3-c]quinolin]-8′-yl)-2-(2-(isopropylamino)ethoxy)pyridin-3-yl)propane-2-sulfonamide] |
| > 100 | 3.6 nM | CCS(=O)(=O)Nc1cc(-c2cc3c4c(cnc3cc2F)N(C)C(=O)C42CCC2)cnc1OCCNC(C)C [Compound 570, N-(5-(7′-Fluoro-3′-methyl-2′-oxo-2′,3′-dihydrospiro[cyclobutane-1,1′-pyrrolo[2,3-c]quinolin]-8′-yl)-2-(2-(isopropylamino)ethoxy)pyridin-3-yl)ethanesulfonamide] |
| > 100 | 5.76 nM and 5.51 nM | CC(C)NCCOc1ncc(-c2cc3c4c(cnc3cc2F)N(C)C(=O)C42CN(C(C)C)C2)cc1NS(C)(=O)=O [Compound 571, N-(5-(7′-Fluoro-1-isopropyl-3′-methyl-2′-oxo-2′,3′-dihydrospiro[azetidine-3,1′-pyrrolo[2,3-c]quinolin]-8′-yl)-2-(2-(isopropylamino)ethoxy)pyridin-3-yl)methanesulfonamide] |
